Measured values: patent publication US10344019B2 (priority 2010, dated 2019)
Read-outs that look alike come from different tables or passages of the source.

What was measured:
Format in all cases: cell-based
[1] = test system: HCV 2b Rluc cells (NS5A chimeric genotype 2a JFH-1 replicon with genotype 2b MD2b-1 NS5A gene, M31 present); experiment: microbe, parasite or virus in culture; details: Hepatitis C virus, read-out: 2b
Method in brief: (§1)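 Replicon cells stably carrying the listed RLuc-encoding dicistronic replicons were seeded and treated with DMSO serial dilutions of compound (10 mM stocks) diluted into culture medium. After 72 h, cells were lysed and Renilla luciferase activity measured. EC50 was derived by non-linear regression.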

[2] = test system: HCV 1a RLuc cells (dicistronic genotype 1a H77 replicon, RLuc reporter); experiment: microbe, parasite or virus in culture; details: read-out: 1a
Method in brief: (§2)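 Renilla luciferase HCV replicon cells: dicistronic 1b Con1, 1a H77 or 2a JFH-1 replicons, or a JFH-1 chimera carrying J6 NS5A (M31 present). Compound in DMSO serial dilutions, 72 h incubation, then lysis and luciferase read. EC50 by non-linear regression.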

[3] = test system: HCV 1b RLuc cells (dicistronic genotype 1b Con1 replicon, RLuc reporter); experiment: microbe, parasite or virus in culture
Method in brief: as §2

[4] = test system: HCV 3a RLuc cells (NS5A chimeric genotype 1b Con1 replicon with consensus genotype 3a NS5A gene); experiment: microbe, parasite or virus in culture
Method in brief: as §1

[5] = test system: HCV 2a JFH-1 Rluc cells (dicistronic genotype 2a JFH-1 replicon, RLuc reporter); experiment: microbe, parasite or virus in culture; details: read-out: 2a JFH
Method in brief: as §2

[6] = test system: HCV 4a Rluc cells (NS5A chimeric genotype 1b Con1 replicon with genotype 4a NS5A gene); experiment: microbe, parasite or virus in culture; details: Hepatitis C virus, read-out: 4a
Method in brief: as §1

[7] = test system: HCV 2a Rluc cells (NS5A chimeric genotype 2a JFH-1 replicon with genotype 2a J6 strain NS5A gene, M31 present); experiment: HCV replicon reporter assay, genotype 2a J6 (M31 present); details: Hepatitis C virus, read-out: 2a J6
Method in brief: as §2

[8] = Hepatitis C virus, genotype 1a replicon
[9] = Hepatitis C virus, read-out: 1b (nM)
[10] = Hepatitis C virus, read-out: 3a, genotype 3a replicon
[11] = Hepatitis C virus, genotype 2a JFH-1 replicon
[12] = Hepatitis C virus, genotype 1a H77 RLuc replicon
[13] = Hepatitis C virus, read-out: 3a, genotype 3a NS5A chimeric replicon
[14] = Hepatitis C virus, genotype 2a JFH-1 RLuc replicon

Compound | EC50 [1] [nM] | EC50 [2, 8] [nM] | EC50 [3, 9] [nM] | EC50 [4, 10] [nM] | EC50 [5, 11] [nM] | EC50 [6] [nM] | EC50 [7] [nM] | EC50 [2, 12] [nM] | EC50 [4, 13] [nM] | EC50 [5, 14] [nM] | EC50 ([2]; Table 2, genotype 1a H77 replicon, 72 hours) [nM] | EC50 ([3]; read-out: 1b) [nM] | EC50 ([4]; read-out: 3a, Table 2, genotype 3a NS5A chimeric replicon) [nM] | EC50 ([5]; Table 2, genotype 2a JFH-1 replicon, 72 hours) [nM] | EC50 ([2]; Hepatitis C virus, genotype 1a H77 replicon, RLuc reporter) [nM] | EC50 ([4]; Hepatitis C virus, read-out: 3a, genotype 3a NS5A chimeric 1b Con1 replicon) [nM] | EC50 ([5]; Hepatitis C virus, genotype 2a JFH-1 replicon, RLuc reporter) [nM]
O=C(N[C@@H](C(=O)N1CCC[C@H]1c1ncc(-c2cc3c4c(c2)OCc2cc(-c5cnc([C@@H]6CCCN6C(=O)[C@H](NC(=O)c6ccccn6)c6ccccc6)[nH]5)cc(c2-4)OC3)[nH]1)c1ccccc1)c1ccccn1 [Example 482] | 0.001 to 0.999 | 0.001 to 0.999 | 0.034 | 0.001 to 0.99 | 0.001 to 0.999 | 0.001 to 0.99 | 0.001 to 0.999 | – | – | – | – | – | – | – | – | – | –
COC[C@H]1C[C@@H](c2nc3ccc4cc(-c5ccc6c(ccc7nc([C@@H]8CCCN8C(=O)[C@H](NC(=O)C8CC8)c8ccccc8)[nH]c76)c5)ccc4c3[nH]2)N(C(=O)[C@@H](NC(=O)OC)C(C)C)C1 [Example 512] | 0.001 to 0.999 | – | 0.035 | – | – | 0.001 to 0.99 | 0.001 to 0.999 | 0.001 to 0.999 | 0.001 to 0.99 | 0.001 to 0.999 | – | – | – | – | – | – | –
COC(=O)N[C@H](C(=O)N1CCC[C@H]1c1ncc(-c2ccc3cc(-c4ccc(-c5cnc([C@@H]6CCCN6C(=O)[C@H](NC(=O)OC)c6ccccc6)[nH]5)cc4)ccc3c2)[nH]1)C(C)C [Example 26] | 1 to 44 | – | – | – | – | 0.001 to 0.99 | 1 to 44 | – | – | – | 0.001 to 0.999 | 0.012 | 0.001 to 0.99 | 0.001 to 0.999 | – | – | –
O=C(N[C@@H](C(=O)N1CCC[C@H]1c1ncc(-c2cc3c4c(c2)OCc2cc(-c5cnc([C@@H]6CCCN6C(=O)[C@H](NC(=O)C6CCOCC6)c6ccccc6)[nH]5)cc(c2-4)OC3)[nH]1)c1ccccc1)C1CCOCC1 [Example 490] | 0.001 to 0.999 | – | 0.989 | – | – | 0.001 to 0.99 | 0.001 to 0.999 | 1 to 44 | 0.001 to 0.99 | 0.001 to 0.999 | – | – | – | – | – | – | –
COC(=O)N[C@H](C(=O)N1CCC[C@H]1c1nc2ccc3c(F)c(-c4ccc5c(ccc6nc([C@@H]7CCCN7C(=O)[C@@H](NC(=O)OC)C(C)C)[nH]c65)c4F)ccc3c2[nH]1)C(C)C [Example 457] | > 44 | 0.001 to 0.999 | 0.009 | 0.001 to 0.99 | 0.001 to 0.999 | 0.001 to 0.99 | > 44 | – | – | – | – | – | – | – | – | – | –
COC[C@H]1C[C@@H](c2ncc(-c3ccc(-c4ccc5c(ccc6nc([C@@H]7C[C@H](COC)CN7C(=O)[C@@H](NC(=O)OC)C(C)C)[nH]c65)c4)cc3)[nH]2)N(C(=O)[C@@H](NC(=O)OC)C(C)C)C1 [Example 440] | 1 to 44 | 0.001 to 0.999 | 0.048 | 1 to 4.99 | 0.001 to 0.999 | 0.001 to 0.99 | 0.001 to 0.999 | – | – | – | – | – | – | – | – | – | –
COC1CN(C(C(=O)N2CCC[C@H]2c2ncc(-c3cc4c5c(c3)OCc3cc(-c6cnc([C@@H]7CCCN7C(=O)C(c7ccccc7)N7CC(OC)C7)[nH]6)cc(c3-5)OC4)[nH]2)c2ccccc2)C1 (some centres unmarked) [Example 444] | 1 to 44 | 1 to 44 | 1.76 | 0.001 to 0.99 | 0.001 to 0.999 | 1 to 4.99 | 1 to 44 | – | – | – | – | – | – | – | – | – | –
COC[C@H]1C[C@@H](c2ncc(-c3ccc(-c4ccc5c(c4)OCc4nc([C@@H]6CCCN6C(=O)[C@@H](NC(=O)OC)C(C)C)[nH]c4-5)cc3)[nH]2)N(C(=O)[C@@H](NC(=O)OC)C(C)C)C1 [Example 458] | > 44 | 0.001 to 0.999 | 0.085 | 1 to 4.99 | 0.001 to 0.999 | 0.001 to 0.99 | > 44 | – | – | – | – | – | – | – | – | – | –
CC(C)[C@@H](C(=O)N[C@@H](C(=O)N1CCC[C@H]1c1ncc(-c2cc3c4c(c2)OCc2cc(-c5cnc([C@@H]6CCCN6C(=O)[C@H](NC(=O)[C@H](C(C)C)N(C)C)c6ccccc6)[nH]5)cc(c2-4)OC3)[nH]1)c1ccccc1)N(C)C [Example 484] | > 44 | > 44 | 0.953 | 0.001 to 0.99 | 0.001 to 0.999 | 0.001 to 0.99 | > 44 | – | – | – | – | – | – | – | – | – | –
COC(=O)N[C@H](C(=O)N1CCC[C@H]1c1nc2ccc3cc(-c4ccc5c(ccc6nc([C@@H]7C[C@H](COC(F)F)CN7C(=O)[C@@H](NC(=O)OC)C(C)C)[nH]c65)c4)ccc3c2[nH]1)C(C)C [Example 514] | 0.001 to 0.999 | – | 0.01 | – | – | 0.001 to 0.99 | 0.001 to 0.999 | 0.001 to 0.999 | 0.001 to 0.99 | 0.001 to 0.999 | – | – | – | – | – | – | –
CNC(=O)N[C@@H](C(=O)N1CCC[C@H]1c1ncc(-c2cc3c4c(c2)OCc2cc(-c5cnc([C@@H]6CCCN6C(=O)[C@H](NC(=O)NC)c6ccccc6)[nH]5)cc(c2-4)OC3)[nH]1)c1ccccc1 [Example 447] | 0.001 to 0.999 | 1 to 44 | 2.05 | 0.001 to 0.99 | 0.001 to 0.999 | 0.001 to 0.99 | 0.001 to 0.999 | – | – | – | – | – | – | – | – | – | –
COC(=O)N[C@H](C(=O)N1CC2(C[C@H]1c1nc3ccc4cc(-c5ccc6c(ccc7nc([C@@H]8CCCN8C(=O)[C@H](NC(=O)OC)c8ccccc8)[nH]c76)c5)ccc4c3[nH]1)OCCO2)C(C)C [Example 323] | 0.001 to 0.999 | 0.001 to 0.999 | 0.043 | 0.001 to 0.99 | 0.001 to 0.999 | 0.001 to 0.99 | 0.001 to 0.999 | – | – | – | – | – | – | – | – | – | –
CC(C)OC(=O)N[C@@H](C(=O)N1CCC[C@H]1c1ncc(-c2cc3c4c(c2)OCc2cc(-c5cnc([C@@H]6CCCN6C(=O)[C@H](NC(=O)OC(C)C)c6ccccc6)[nH]5)cc(c2-4)OC3)[nH]1)c1ccccc1 [Example 488] | 0.001 to 0.999 | – | 0.03 | – | – | 0.001 to 0.99 | 1 to 44 | 0.001 to 0.999 | 0.001 to 0.99 | 0.001 to 0.999 | – | – | – | – | – | – | –
COC(=O)N[C@H](C(=O)N1CCC[C@H]1c1ncc(-c2ccc3c(c2)COc2cc4c(cc2-3)CCc2nc([C@@H]3CCCN3C(=O)[C@H](NC(=O)C3CC3)c3ccccc3)[nH]c2-4)[nH]1)C(C)C [Example 503] | 0.001 to 0.999 | – | 0.041 | – | – | 0.001 to 0.99 | 0.001 to 0.999 | 0.001 to 0.999 | 0.001 to 0.99 | 0.001 to 0.999 | – | – | – | – | – | – | –
O=C(CC1CC1)N[C@@H](C(=O)N1CCC[C@H]1c1ncc(-c2cc3c4c(c2)OCc2cc(-c5cnc([C@@H]6CCCN6C(=O)[C@H](NC(=O)CC6CC6)c6ccccc6)[nH]5)cc(c2-4)OC3)[nH]1)c1ccccc1 [Example 465] | 0.001 to 0.999 | 0.001 to 0.999 | 0.176 | 0.001 to 0.99 | 0.001 to 0.999 | 0.001 to 0.99 | 0.001 to 0.999 | – | – | – | – | – | – | – | – | – | –
COC[C@H]1C[C@@H](c2ncc(-c3ccc(-c4ccc5c(ccc6nc([C@@H]7CCCN7C(=O)[C@@H](NC(=O)OC)C(C)C)[nH]c65)c4)cc3)[nH]2)N(C(=O)[C@@H](NC(=O)OC)C(C)C)C1 [Example 441] | > 44 | 0.001 to 0.999 | 0.03 | 0.001 to 0.99 | 0.001 to 0.999 | 0.001 to 0.99 | 1 to 44 | – | – | – | – | – | – | – | – | – | –
CC(C)C(=O)N[C@@H](C(=O)N1CCC[C@H]1c1ncc(-c2cc3c4c(c2)OCc2cc(-c5cnc([C@@H]6CCCN6C(=O)[C@H](NC(=O)C(C)C)c6ccccc6)[nH]5)cc(c2-4)OC3)[nH]1)c1ccccc1 [Example 468] | 0.001 to 0.999 | 0.001 to 0.999 | 0.113 | 0.001 to 0.99 | 0.001 to 0.999 | 0.001 to 0.99 | 0.001 to 0.999 | – | – | – | – | – | – | – | – | – | –
COC(=O)N[C@H](C(=O)N1[C@@H]2CC[C@@H](C2)[C@H]1c1nc2ccc3cc(-c4ccc5c(ccc6nc([C@@H]7CCCN7C(=O)[C@H](NC(=O)C(C)(C)O)c7ccccc7)[nH]c65)c4)ccc3c2[nH]1)C(C)C [Example 357] | 0.001 to 0.999 | 0.001 to 0.999 | 0.044 | 0.001 to 0.99 | 0.001 to 0.999 | 0.001 to 0.99 | 0.001 to 0.999 | – | – | – | – | – | – | – | – | – | –
COC(=O)N[C@H](C(=O)N1CCC[C@H]1c1nc2ccc3cc(-c4ccc5cc(-c6cnc([C@@H]7CCCN7C(=O)[C@H](NC(=O)OC)c7ccccc7)[nH]6)ccc5c4)ccc3c2[nH]1)C(C)C [Example 206] | > 44 | – | 0.005 | – | – | 0.001 to 0.99 | 1 to 44 | – | – | – | – | – | – | – | 0.001 to 0.999 | 0.001 to 0.99 | 0.001 to 0.999
COC[C@H]1C[C@@H](c2nc3ccc4cc(-c5ccc6c(ccc7nc([C@@H]8C[C@H]9C[C@H]9N8C(=O)[C@@H](NC(=O)OC)C(C)C)[nH]c76)c5)ccc4c3[nH]2)N(C(=O)[C@H](NC(=O)OC(C)(C)C)c2ccccc2)C1 [Example 497] | 0.001 to 0.999 | – | 0.008 | – | – | 0.001 to 0.99 | 0.001 to 0.999 | 0.001 to 0.999 | 0.001 to 0.99 | 0.001 to 0.999 | – | – | – | – | – | – | –
